{"source": "ChEMBL document CHEMBL6177982", "about": "“Structural Optimization of Pyrazole Compounds as Hsp90 Regulators with Enhanced Antitumor Activity” (J Med Chem, 2025)", "key": {"[1]": {"experiment": "Toxicity in female Balb/c nude mouse xenografted with human HCT-116 cells assessed as effect on body weight at 5 to 30 mg/kg, ip administered every two days for 14 days", "assay_type": "organism-based", "details": "in vivo, 336 h, dose 5-30 mg/kg, time 14 day"}, "CT26": {"test_system": "CT26", "experiment": "Antiproliferative activity against mouse CT26 cells assessed as inhibition of cell proliferation incubated for 72 hrs by MTT assay", "assay_type": "functional, cell-based", "details": "CT26, 72 h"}, "Mus musculus [2]": {"test_system": "Mus musculus", "experiment": "Upregulation of HSP90 protein level in female Balb/c mouse tumor xenografted with human HCT-116 cells at 5 to 30 mg/kg, ip administered every two days for 14 days by Western blot analysis", "assay_type": "functional, organism-based", "details": "dose 5-30 mg/kg, time 14.0 day"}, "HCT-116 [3]": {"test_system": "HCT-116", "experiment": "Antiproliferative activity against human HCT-116 cells assessed as inhibition of cell proliferation incubated for 24 hrs by MTT assay", "assay_type": "functional, cell-based", "details": "HCT-116, 24 h"}, "[4]": {"experiment": "Metabolic stability in rat liver microsomes assessed as clearance at 1 uM preincubated for 5 mins followed by NADPH addition and measured up to 120 mins by LC-MS/MS analysis", "assay_type": "ADME, Microsome", "details": "time < 125 min, read-out: CLH"}, "HCT-116 [5]": {"test_system": "HCT-116", "experiment": "Inhibition of Myc-tagged HSP90 (unknown origin)/HSF1 (unknown origin) protein-protein interaction transfected in human HCT-116 cells at 1 to 5 uM incubated for 12 hrs by co-immunoprecipitation analysis", "assay_type": "cell-based", "details": "dose 1-5 µM"}, "[6]": {"biological_target": "T1, Heat shock protein HSP 90-beta/Hsp90 co-chaperone Cdc37 (Homo sapiens) (UniProt P08238+Q16543)", "experiment": "Inhibition of Myc-tagged HSP90 (unknown origin)/CDC37 (unknown origin) protein-protein interaction transfected in human HCT-116 cells incubated for 12 hrs by co-immunoprecipitation analysis", "assay_type": "cell-based", "details": "dose 0.5-5 µM"}, "[7]": {"experiment": "Metabolic stability in human liver microsomes assessed as clearance at 1 uM preincubated for 5 mins followed by NADPH addition and measured up to 120 mins by LC-MS/MS analysis", "assay_type": "ADME, Microsome", "details": "time < 125 min, read-out: CLH"}, "HCT-116 [8]": {"test_system": "HCT-116", "experiment": "Induction of AKT degradation in human HCT-116 cells incubated for 24 hrs by Western blot analysis", "assay_type": "cell-based", "details": "dose 0.1-5 µM"}, "[9]": {"biological_target": "Heat shock protein HSP90 (Homo sapiens) (UniProt P07900+P08238)", "experiment": "Covalent binding affinity to wildtype His-tagged C-terminal HSP90 (unknown origin) assessed as two phase melting curve at 100 uM incubated for 4 hrs by SYPRO fluorescent dye based thermal shift assay", "assay_type": "protein assay"}, "[10]": {"experiment": "Half-life in male Sprague-Dawley rat at 10 mg/kg, IG by LC-MS/MS analysis", "assay_type": "ADME, organism-based", "details": "in vivo, po"}, "Mus musculus [11]": {"test_system": "Mus musculus", "experiment": "Upregulation of HSP70 protein level in female Balb/c mouse tumor xenografted with human HCT-116 cells at 5 to 30 mg/kg, ip administered every two days for 14 days by Western blot analysis", "assay_type": "functional, organism-based", "details": "dose 5-30 mg/kg, time 14.0 day"}, "SK-BR-3": {"test_system": "SK-BR-3", "experiment": "Antiproliferative activity against human SK-BR-3 cells assessed as inhibition of cell proliferation incubated for 72 hrs by MTT assay", "assay_type": "functional, cell-based", "details": "SK-BR-3, 72 h"}, "[12]": {"experiment": "Toxicity in female Balb/c nude mouse xenografted with human HCT-116 cells assessed as effect on kidney weight at 5 to 30 mg/kg, ip administered every two days for 14 days", "assay_type": "organism-based", "details": "in vivo, 336 h, dose 5-30 mg/kg, time 14 day"}, "HCT-116 [13]": {"test_system": "HCT-116", "experiment": "Inhibition of Myc-tagged HSP90 C598A mutant (unknown origin)/CDC37 (unknown origin) protein-protein interaction transfected in human HCT-116 cells at 0.5 to 5 uM incubated for 12 hrs by co-immunoprecipitation analysis", "assay_type": "cell-based", "details": "dose 0.5-5 µM"}, "[14]": {"experiment": "Bioavailability in male Sprague-Dawley rat at 10 mg/kg, IG by LC-MS/MS analysis", "assay_type": "ADME, organism-based", "details": "in vivo, po"}, "[15]": {"experiment": "Toxicity in female Balb/c nude mouse xenografted with human HCT-116 cells assessed as pathological changes in liver at 5 to 30 mg/kg, ip administered every two days for 14 days by H and E staining based analysis", "assay_type": "organism-based", "details": "in vivo, 336 h, dose 5-30 mg/kg, time 14 day"}, "HCT-116 [16]": {"test_system": "HCT-116", "experiment": "Induction of CDK4 degradation in human HCT-116 cells incubated for 24 hrs by Western blot analysis", "assay_type": "cell-based", "details": "dose 0.1-5 µM"}, "HCT-116 [17]": {"test_system": "HCT-116", "experiment": "Inhibition of Myc-tagged HSP90 (unknown origin)/AKT(unknown origin) protein-protein interaction transfected in human HCT-116 cells at 1 to 5 uM incubated for 12 hrs by co-immunoprecipitation analysis", "assay_type": "cell-based", "details": "dose 1-5 µM"}, "Mus musculus [18]": {"test_system": "Mus musculus", "experiment": "In vivo induction of CDK4 degradation in female Balb/c nude mouse xenografted with human HCT-116 cells assessed as decrease in CDK4 protein level in tumor at 5 to 30 mg/kg, ip administered every two days for 14 days by Western blot analysis", "assay_type": "functional, organism-based", "details": "dose 5-30 mg/kg, time 14.0 day"}, "HCT-116 [19]": {"test_system": "HCT-116", "experiment": "Inhibition of Myc-tagged HSP90 C598A mutant (unknown origin)/CDK4 (unknown origin) protein-protein interaction transfected in human HCT-116 cells at 1 to 5 uM incubated for 12 hrs by co-immunoprecipitation analysis", "assay_type": "cell-based", "details": "dose 1-5 µM"}, "[20]": {"biological_target": "T1, Heat shock protein HSP 90-beta/Hsp90 co-chaperone Cdc37 (Homo sapiens)", "experiment": "Inhibition of His-tagged HSP90(unknown origin)/GST-tagged CDC37 (unknown origin) protein-protein interaction at 100 uM preincubated with HSP90 for 1 hrs followed by CDC37 addition and measured after 1 hrs by HTRF assay relative to control", "assay_type": "protein-complex assay"}, "[21]": {"biological_target": "Heat shock protein HSP 90-alpha (Homo sapiens, UniProt P07900)", "experiment": "Binding affinity to HSP90alpha (unknown origin) assessed as dissociation constant by ITC analysis"}, "[22]": {"experiment": "Toxicity in female Balb/c nude mouse xenografted with human HCT-116 cells assessed as effect on lung weight at 5 to 30 mg/kg, ip administered every two days for 14 days", "assay_type": "organism-based", "details": "in vivo, 336 h, dose 5-30 mg/kg, time 14 day"}, "[23]": {"experiment": "Clearance in male Sprague-Dawley rat at 1 mg/kg, iv by LC-MS/MS analysis", "assay_type": "ADME, organism-based", "details": "in vivo"}, "HCT-116 [24]": {"test_system": "HCT-116", "experiment": "Antiproliferative activity against human HCT-116 cells assessed as inhibition of cell proliferation incubated for 72 hrs by MTT assay", "assay_type": "functional, cell-based", "details": "HCT-116, 72 h"}, "HCT-116 [25]": {"test_system": "HCT-116", "experiment": "Antiproliferative activity against human HCT-116 cells assessed as inhibition of cell proliferation incubated for 48 hrs by MTT assay", "assay_type": "functional, cell-based", "details": "HCT-116, 48 h"}, "[26]": {"experiment": "Stability of compound in simulated intestinal fluid at 100 uM incubated for 12 hrs", "assay_type": "physicochemical", "details": "simulated gi fluid"}, "[27]": {"experiment": "Metabolic stability in rat liver microsomes assessed as terminal elimination half-life at 1 uM preincubated for 5 mins followed by NADPH addition and measured up to 120 mins by LC-MS/MS analysis", "assay_type": "ADME, Microsome", "details": "time < 125 min, read-out: LambdaZ (converted)"}, "[28]": {"experiment": "Toxicity in female Balb/c nude mouse xenografted with human HCT-116 cells assessed as pathological changes in heart at 5 to 30 mg/kg, ip administered every two days for 14 days by H and E staining based analysis", "assay_type": "organism-based", "details": "in vivo, 336 h, dose 5-30 mg/kg, time 14 day"}, "[29]": {"experiment": "Metabolic stability in rat liver microsomes assessed as parent compound remaining at 1 uM preincubated for 5 mins followed by NADPH addition and measured after 30 mins by LC-MS/MS analysis", "assay_type": "ADME, Microsome", "details": "time 35 min, read-out: Stability"}, "[30]": {"experiment": "Tmax in male Sprague-Dawley rat at 5 mg/kg, ip by LC-MS/MS analysis", "assay_type": "ADME, organism-based", "details": "in vivo"}, "[31]": {"experiment": "Apparent volume of distribution in male Sprague-Dawley rat at 5 mg/kg, ip by LC-MS/MS analysis", "assay_type": "ADME, organism-based", "details": "in vivo"}, "HCT-116 [32]": {"test_system": "HCT-116", "experiment": "Inhibition of Myc-tagged HSP90 C598A mutant (unknown origin)/AKT(unknown origin) protein-protein interaction transfected in human HCT-116 cells at 1 to 5 uM incubated for 12 hrs by co-immunoprecipitation analysis", "assay_type": "cell-based", "details": "dose 1-5 µM"}}, "note": "Active and inactive are the calls of the source. The rule behind the calls is not given here.", "data": [{"smiles": "O=S(=O)(/C=C/c1cn(-c2ccccc2)nc1-c1cccnc1)c1ccccc1", "values": [{"measurement": "Activity", "setting": "[1]", "result": "Non-toxic"}, {"measurement": "IC50", "setting": "CT26", "result": 1.97, "unit": "µM"}, {"measurement": "Activity", "setting": "Mus musculus [2]", "result": "inactive"}, {"measurement": "IC50", "setting": "HCT-116 [3]", "result": 6.36, "unit": "µM"}, {"measurement": "microsomal CLint at 1 µM", "setting": "[4]", "result": 55, "unit": "µL/min/mg"}, {"measurement": "inhibition", "setting": "HCT-116 [5]", "result": "inactive"}, {"measurement": "inhibition", "setting": "[6]", "result": "Dose-dependent-effect"}, {"measurement": "microsomal CLint at 1 µM", "setting": "[7]", "result": 26, "unit": "µL/min/mg"}, {"measurement": "Activity", "setting": "HCT-116 [8]", "result": "Dose-dependent-effect"}, {"measurement": "Activity", "setting": "[9]", "result": "Active"}, {"measurement": "half-life", "setting": "[10]", "result": 121, "unit": "min"}, {"measurement": "Activity", "setting": "Mus musculus [11]", "result": "inactive"}, {"measurement": "IC50", "setting": "SK-BR-3", "result": 1.99, "unit": "µM"}, {"measurement": "Activity", "setting": "[12]", "result": "Non-toxic"}, {"measurement": "inhibition", "setting": "HCT-116 [13]", "result": "inactive"}, {"measurement": "bioavailability", "setting": "[14]", "result": 67.2, "unit": "%"}, {"measurement": "Activity", "setting": "[15]", "result": "Non-toxic"}, {"measurement": "Activity", "setting": "HCT-116 [16]", "result": "Dose-dependent-effect"}, {"measurement": "inhibition", "setting": "HCT-116 [17]", "result": "Active"}, {"measurement": "Activity", "setting": "Mus musculus [18]", "result": "Active"}, {"measurement": "inhibition", "setting": "HCT-116 [19]", "result": "inactive"}, {"measurement": "inhibition", "setting": "[20]", "result": 92.9, "unit": "%"}, {"measurement": "Kd", "setting": "[21]", "result": 3.96, "unit": "µM"}, {"measurement": "Activity", "setting": "[22]", "result": "Non-toxic"}, {"measurement": "clearance", "setting": "[23]", "result": 11.8, "unit": "mL/min/kg"}, {"measurement": "IC50", "setting": "HCT-116 [24]", "result": 1.08, "unit": "µM"}, {"measurement": "IC50", "setting": "HCT-116 [25]", "result": 4.18, "unit": "µM"}, {"measurement": "Stability", "setting": "[26]", "result": "Stable"}, {"measurement": "half-life at 1 µM", "setting": "[27]", "result": 25.2, "unit": "min"}, {"measurement": "Activity", "setting": "[28]", "result": "Non-toxic"}, {"measurement": "remaining at 0.5 h, 1 µM", "setting": "[29]", "result": 58, "unit": "%"}, {"measurement": "Tmax", "setting": "[30]", "result": 8.4, "unit": "min"}, {"measurement": "Vz", "setting": "[31]", "result": 0.97, "unit": "L/kg"}, {"measurement": "inhibition", "setting": "HCT-116 [32]", "result": "inactive"}]}]}
